Data taken from patent publication US11040981B2, “Pyrrolotriazine compounds and methods of inhibiting TAM kinases” (Syros Pharmaceuticals, Inc., priority 2017, dated 2021).

Assays:
[1] = molecular target: T1, AXL (Homo sapiens, UniProt P30530); test: TR-FRET kinase activity assay, AXL; type: biochemical; settings: ATP at Km, 60 minutes
T1 sequence (P30530 26-894): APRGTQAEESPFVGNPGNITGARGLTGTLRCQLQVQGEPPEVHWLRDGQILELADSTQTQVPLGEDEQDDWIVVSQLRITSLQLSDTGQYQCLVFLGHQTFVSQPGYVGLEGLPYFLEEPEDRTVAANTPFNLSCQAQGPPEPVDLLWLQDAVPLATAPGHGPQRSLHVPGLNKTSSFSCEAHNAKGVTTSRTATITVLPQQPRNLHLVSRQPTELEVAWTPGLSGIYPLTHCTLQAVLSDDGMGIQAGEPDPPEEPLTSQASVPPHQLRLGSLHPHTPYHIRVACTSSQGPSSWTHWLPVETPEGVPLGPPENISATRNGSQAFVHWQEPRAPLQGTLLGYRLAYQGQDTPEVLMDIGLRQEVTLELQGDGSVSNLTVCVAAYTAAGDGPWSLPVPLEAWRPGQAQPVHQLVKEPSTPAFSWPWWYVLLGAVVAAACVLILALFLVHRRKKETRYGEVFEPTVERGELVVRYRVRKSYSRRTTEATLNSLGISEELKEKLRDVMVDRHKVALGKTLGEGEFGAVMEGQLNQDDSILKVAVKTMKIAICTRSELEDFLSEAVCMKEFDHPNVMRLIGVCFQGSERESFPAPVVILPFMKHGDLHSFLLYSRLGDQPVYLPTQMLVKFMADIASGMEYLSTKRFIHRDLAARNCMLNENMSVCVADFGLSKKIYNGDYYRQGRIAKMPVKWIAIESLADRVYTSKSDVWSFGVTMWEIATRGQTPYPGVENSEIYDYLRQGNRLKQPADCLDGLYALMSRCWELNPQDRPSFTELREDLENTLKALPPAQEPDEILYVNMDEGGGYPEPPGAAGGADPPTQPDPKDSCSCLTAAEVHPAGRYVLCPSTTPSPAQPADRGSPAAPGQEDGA
Summary of the method: (§1)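 Enzyme, fluorescent peptide substrate and compound were mixed, and the reaction was started with ATP at each kinase's Km, in 50 mM HEPES pH 7.5, 10 mM MgCl2, 1 mM EGTA, 0.01% Brij 35, 1 mM DTT at RT. After 60 minutes EDTA quench, Eu-labelled phospho-specific antibody was added for 30 minutes, and IC50 was derived from TR-FRET signal loss.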

[2] = molecular target: T2, FLT3 (Homo sapiens, UniProt P36888); test: TR-FRET kinase activity assay, FLT3; type: biochemical; settings: ATP at Km, 60 minutes
T2 sequence (P36888 27-993): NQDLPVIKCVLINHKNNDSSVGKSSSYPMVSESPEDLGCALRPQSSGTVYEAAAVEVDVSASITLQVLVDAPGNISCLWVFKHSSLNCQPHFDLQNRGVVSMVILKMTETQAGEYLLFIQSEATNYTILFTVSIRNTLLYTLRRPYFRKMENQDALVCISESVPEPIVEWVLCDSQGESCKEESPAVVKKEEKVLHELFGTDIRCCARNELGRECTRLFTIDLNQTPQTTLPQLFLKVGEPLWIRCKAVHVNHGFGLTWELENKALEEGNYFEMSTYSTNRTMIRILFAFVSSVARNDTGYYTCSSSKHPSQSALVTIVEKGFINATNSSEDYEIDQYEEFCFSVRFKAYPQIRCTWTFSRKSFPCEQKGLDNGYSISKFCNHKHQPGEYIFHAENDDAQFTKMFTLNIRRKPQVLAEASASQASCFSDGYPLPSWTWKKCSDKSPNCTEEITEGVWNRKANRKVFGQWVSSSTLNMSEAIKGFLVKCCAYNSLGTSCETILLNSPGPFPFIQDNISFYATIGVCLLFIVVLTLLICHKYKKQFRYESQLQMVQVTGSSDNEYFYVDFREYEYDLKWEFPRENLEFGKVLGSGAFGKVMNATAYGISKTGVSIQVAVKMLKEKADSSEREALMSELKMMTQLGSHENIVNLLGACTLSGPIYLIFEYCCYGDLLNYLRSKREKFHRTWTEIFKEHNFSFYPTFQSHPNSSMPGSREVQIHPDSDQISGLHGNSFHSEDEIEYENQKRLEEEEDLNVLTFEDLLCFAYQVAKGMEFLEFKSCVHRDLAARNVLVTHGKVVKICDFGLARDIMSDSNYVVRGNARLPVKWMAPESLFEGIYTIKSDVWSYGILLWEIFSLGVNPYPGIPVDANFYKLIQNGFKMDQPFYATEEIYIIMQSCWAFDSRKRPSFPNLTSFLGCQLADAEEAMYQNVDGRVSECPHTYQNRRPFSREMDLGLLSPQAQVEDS
Summary of the method: as §1

| Compound | IC50 [1] | IC50 [2] |
| --- | --- | --- |
| COC[C@H](C)Nc1ncc2c(C3=C[C@@H]4CC[C@H](C3)N4)cc([C@H]3CC[C@H](O)CC3)n2n1 [Compound 461] | ≤ 100 nM | 1000 to 10000 nM |
| COC[C@H](C)Nc1ncc2c(C3=C[C@@H]4CC[C@H](C3)N4C(C)=O)cc([C@H]3CC[C@H](O)CC3)n2n1 [Compound 462] | ≤ 100 nM | 100 to 1000 nM |
| COC[C@H](C)Nc1ncc2c(C3=C[C@@H]4CC[C@H](C3)N4C(=O)N3CCOCC3)cc([C@H]3CC[C@H](O)CC3)n2n1 [Compound 463] | ≤ 100 nM | 100 to 1000 nM |
| COC[C@H](C)Nc1ncc2c(C3=C[C@@H]4CC[C@H](C3)N4C)cc([C@H]3CC[C@H](O)CC3)n2n1 [Compound 465] | ≤ 100 nM | 1000 to 10000 nM |
| COC[C@H](C)Nc1ncc2c(C3=C[C@H]4CC[C@@H](C3)N4)cc([C@H]3CC[C@H](O)CC3)n2n1 [Compound 467] | ≤ 100 nM | 1000 to 10000 nM |
| COC[C@H](C)Nc1ncc2c(C3=C[C@H]4CCC(C3)N4C(C)=O)cc([C@H]3CC[C@H](O)CC3)n2n1 [Compound 468] | ≤ 100 nM | 100 to 1000 nM |
| COC[C@H](C)Nc1ncc2c(C3=C[C@H]4CC[C@@H](C3)N4C(=O)N3CCOCC3)cc([C@H]3CC[C@H](O)CC3)n2n1 [Compound 469] | ≤ 100 nM | 100 to 1000 nM |
| COC[C@H](C)Nc1ncc2c(C#N)cc([C@H]3CC[C@H](O)CC3)n2n1 [Compound 481] | 1000 to 10000 nM | 1000 to 10000 nM |
| COC[C@H](C)Nc1ncc2c([C@H]3CC[C@@H](C(=O)N4CCOCC4)CC3)cc([C@H]3CC[C@H](O)CC3)n2n1 [Compound 484] | 100 to 1000 nM | 1000 to 10000 nM |
| COC[C@H](C)Nc1ncc2c(C3=C[C@@H]4CC[C@H](C3)N4CC(F)(F)F)cc([C@H]3CC[C@H](O)CC3)n2n1 [Compound 485] | ≤ 100 nM | 100 to 1000 nM |
| COC[C@H](C)Nc1ncc2c(-c3ccnc(N4CCN(S(=O)(=O)C(F)(F)F)CC4)c3)cc([C@H]3CC[C@H](O)CC3)n2n1 [Compound 487] | 100 to 1000 nM | 1000 to 10000 nM |
| C[C@@H](CC(F)F)Nc1ncc2c(-c3ccc(S(C)(=O)=O)nc3)cc([C@H]3CC[C@H](O)CC3)n2n1 [Compound 489] | ≤ 100 nM | ≤ 100 nM |
| COC[C@H](C)Nc1ncc2c(-c3ccnc(Oc4cccnc4)c3)cc([C@H]3CC[C@H](O)CC3)n2n1 [Compound 490] | ≤ 100 nM | 100 to 1000 nM |
| COC[C@H](C)Nc1ncc2c(-c3ccnc(N4CCN(S(=O)(=O)C5CC5)CC4)c3)cc([C@H]3CC[C@H](O)CC3)n2n1 [Compound 491] | ≤ 100 nM | 100 to 1000 nM |
| COC[C@H](C)Nc1ncc2c(C3=C[C@H]4CC[C@@H](C3)N4CC(F)(F)F)cc([C@H]3CC[C@H](O)CC3)n2n1 [Compound 492] | ≤ 100 nM | 1000 to 10000 nM |
| COC[C@H](C)Nc1ncc2c(-c3ccnc(N4CCC5(COC5)C4)c3)cc([C@H]3CC[C@H](O)CC3)n2n1 [Compound 493] | ≤ 100 nM | 100 to 1000 nM |
| COC[C@H](C)Nc1ncc2c(C3=C[C@H]4CC[C@@H](C3)N4C)cc([C@H]3CC[C@H](O)CC3)n2n1 [Compound 494] | ≤ 100 nM | 1000 to 10000 nM |
| COC[C@H](C)Nc1ncc2c(-c3cnn(C(C)(C)C(=O)N4Cc5nc(C)sc5C4)c3)cc([C@H]3CC[C@H](O)CC3)n2n1 [Compound 495] | ≤ 100 nM | 1000 to 10000 nM |
| COC[C@H](C)Nc1ncc2c(-c3cnn(C(C)(C)C(=O)C4CCc5sc(C)nc5C4)c3)cc([C@H]3CC[C@H](O)CC3)n2n1 (some centres unmarked) [Compound 496] | ≤ 100 nM | 1000 to 10000 nM |
| COC[C@H](C)Nc1ncc2c(CC#N)cc([C@H]3CC[C@H](O)CC3)n2n1 [Compound 497] | 100 to 1000 nM | 1000 to 10000 nM |
| COC[C@H](C)Nc1ncc2c(-c3cccc(C4CCc5nc(C)[nH]c5C4)c3)cc([C@H]3CC[C@H](O)CC3)n2n1 (some centres unmarked) [Compound 498] | ≤ 100 nM | 100 to 1000 nM |
| C[C@@H](CC(F)(F)F)Nc1ncc2c(C3=C[C@@H]4CC[C@H](C3)N4)cc([C@H]3CC[C@H](O)CC3)n2n1 [Compound 499] | ≤ 100 nM | 100 to 1000 nM |
| COC[C@H](C)Nc1ncc2c(-c3ccnc(N4CCN(C(=O)C5COC5)CC4)c3)cc([C@H]3CC[C@H](O)CC3)n2n1 [Compound 500] | ≤ 100 nM | 100 to 1000 nM |
| COC[C@H](C)Nc1ncc2c(-c3cnn(C4COC4)c3)cc(-c3ccc(O)nc3)n2n1 [Compound 501] | 100 to 1000 nM | 1000 to 10000 nM |

Second part, the compound after the results:

| IC50 [1] | IC50 [2] | Compound |
| --- | --- | --- |
| ≤ 100 nM | ≤ 100 nM | COC[C@H](C)Nc1ncc2c(-c3ccc(C(C)(C)C(=O)N4CCOCC4)s3)cc([C@H]3CC[C@H](O)CC3)n2n1 [Compound 460] |
| ≤ 100 nM | 100 to 1000 nM | COC[C@H](C)Nc1ncc2c(-c3cccc(N4C[C@H]5COC[C@H]5C4)c3)cc([C@H]3CC[C@H](O)CC3)n2n1 [Compound 464] |
| ≤ 100 nM | 1000 to 10000 nM | COC[C@H](C)Nc1ncc2c(-c3cnn(C(C)(C)C(=O)N4CCN(C)CC4)c3)cc([C@H]3CC[C@H](O)CC3)n2n1 [Compound 466] |
| ≤ 100 nM | 100 to 1000 nM | COC[C@H](C)Nc1ncc2c(-c3cnn([C@H]4CCN(C)C4=O)c3)cc([C@H]3CC[C@H](O)CC3)n2n1 [Compound 470] |
| ≤ 100 nM | 1000 to 10000 nM | COC[C@H](C)Nc1ncc2c(-c3cnn([C@@H]4CCN(C)C4=O)c3)cc([C@H]3CC[C@H](O)CC3)n2n1 [Compound 471] |
| ≤ 100 nM | 100 to 1000 nM | COC[C@H](C)Nc1ncc2c(-c3cnn(C[C@@H]4CC(=O)N(C)C4)c3)cc([C@H]3CC[C@H](O)CC3)n2n1 [Compound 473] |
| ≤ 100 nM | 100 to 1000 nM | COC[C@H](C)Nc1ncc2c(-c3cnn(C[C@@H]4CCO4)c3)cc([C@H]3CC[C@H](O)CC3)n2n1 [Compound 474] |
| ≤ 100 nM | 100 to 1000 nM | COC[C@H](C)Nc1ncc2c(-c3cnn(C[C@H]4CC(=O)N(C)C4)c3)cc([C@H]3CC[C@H](O)CC3)n2n1 [Compound 475] |
| ≤ 100 nM | 1000 to 10000 nM | COC[C@H](C)Nc1ncc2c(-c3cnn(C[C@@H]4CCO4)c3)cc([C@H]3CC[C@H](O)CC3)n2n1 [Compound 478] |
| ≤ 100 nM | 1000 to 10000 nM | COC[C@H](C)Nc1ncc2c(-c3ccnc(N4Cc5nc(C)sc5C4)c3)cc([C@H]3CC[C@H](O)CC3)n2n1 [Compound 479, (trans)-4-(2-(((S)-1-methoxypropan-2-yl)amino)-5-(2-(2-methyl-4H-pyrrolo[3,4-d]thiazol-5(6H)-yl)pyridin-4-yl)pyrrolo[2,1-f][1,2,4]triazin-7-yl)cyclohexanol] |
| ≤ 100 nM | 100 to 1000 nM | COC[C@H](C)Nc1ncc2c(-c3ccnc(N4CCOC5(COC5)C4)c3)cc([C@H]3CC[C@H](O)CC3)n2n1 [Compound 480] |
| ≤ 100 nM | 1000 to 10000 nM | COC[C@H](C)Nc1ncc2c(-c3ccnc(N4CCN(C5COC5)CC4)c3)cc([C@H]3CC[C@H](O)CC3)n2n1 [Compound 486] |
| ≤ 100 nM | 100 to 1000 nM | COC[C@H](C)Nc1ncc2c(-c3cnn(C(C)(C)C(=O)N4CCOCC4)c3)cc(C3CCc4[nH]ncc4C3)n2n1 (some centres unmarked) [Compound 488] |
